# Measured values: ChEMBL document CHEMBL3885881, “DrugMatrix”
# Species on record: Rattus norvegicus
# Assay: DrugMatrix - Regimen: Daily Repeat
# Assay type: toxicity, organism-based, Sprague-Dawley
# Set-up: regimen Daily Repeat, gender Male, age 6-8 weeks
# Conditions: in vivo, po, route oral GAVAGE, […]; for ABSOLUTE BASOPHIL / ABSOLUTE EOSINOPHIL / ABSOLUTE LYMPHOCYTE / ABSOLUTE MONOCYTE / ABSOLUTE SEGMENTED NEUTROPHIL / BASOPHIL / EOSINOPHIL / ERYTHROCYTE COUNT / HEMATOCRIT / HEMOGLOBIN / LEUKOCYTE COUNT / LYMPHOCYTE / MEAN CORPUSCULAR HEMOGLOBIN / MEAN CORPUSCULAR HEMOGLOBIN CONCENTRATION / MONOCYTE / NEUTROPHIL / NUCLEATED RED BLOOD CELLS / PLATELET COUNT: tissue Blood; for ALANINE AMINOTRANSFERASE / ALBUMIN / ALKALINE PHOSPHATASE / ASPARTATE AMINOTRANSFERASE / BLOOD UREA NITROGEN / CARBON DIOXIDE / CHLORIDE / CHOLESTEROL / CREATINE PHOSPHOKINASE / CREATININE / LACTATE DEHYDROGENASE / LIPASE / PHOSPHORUS / POTASSIUM / SODIUM / TOTAL BILIRUBIN / TOTAL PROTEIN / URIC ACID: tissue Plasma
# [1] = 0 mg/kg, 72 h, dose level Control, time 3 day
# [2] = 0 mg/kg, 120 h, dose level Control, time 5 day
# [3] = 10 mg/kg, 72 h, dose level Low, time 3 day
smiles,measurement,setting,value
CN(CCOc1ccc(CC2SC(=O)NC2=O)cc1)c1ccccn1 (stereo not drawn) [ROSIGLITAZONE],ABSOLUTE BASOPHIL,[1],0 CELLS/uL
same,ABSOLUTE EOSINOPHIL,[1],14 CELLS/uL
same,ABSOLUTE LYMPHOCYTE,[1],11144.67 CELLS/uL
same,ABSOLUTE MONOCYTE,[1],22.5 CELLS/uL
same,ABSOLUTE SEGMENTED NEUTROPHIL,[1],535.5 CELLS/uL
same,BASOPHIL,[1],0%
same,EOSINOPHIL,[1],0.17%
same,ERYTHROCYTE COUNT,[1],5.08 x10E6/uL
same,HEMATOCRIT,[1],32.32%
same,HEMOGLOBIN,[1],12.87 G/DL
same,LEUKOCYTE COUNT,[1],11.72 x10E3/uL
same,LYMPHOCYTE,[1],94.67%
same,MEAN CORPUSCULAR HEMOGLOBIN,[1],25.37 pg
same,MEAN CORPUSCULAR HEMOGLOBIN CONCENTRATION,[1],39.85 G/DL
same,MONOCYTE,[1],0.17%
same,NEUTROPHIL,[1],5%
same,NUCLEATED RED BLOOD CELLS,[1],0 /100WBC
same,PLATELET COUNT,[1],1084 x10E3/uL
same,ALANINE AMINOTRANSFERASE,[1],67.5 u/L
same,ALBUMIN,[1],4.02 G/DL
same,ALKALINE PHOSPHATASE,[1],374.17 u/L
same,ASPARTATE AMINOTRANSFERASE,[1],83.5 u/L
same,BLOOD UREA NITROGEN,[1],14.5 mg/dL
same,CARBON DIOXIDE,[1],30 mmol/L
same,CHLORIDE,[1],100.5 MEQ/L
same,CHOLESTEROL,[1],71.33 mg/dL
same,CREATINE PHOSPHOKINASE,[1],268.33 u/L
same,CREATININE,[1],0.16 mg/dL
same,LACTATE DEHYDROGENASE,[1],81.17 u/L
same,LIPASE,[1],16.67 u/L
same,PHOSPHORUS,[1],10.07 mg/dL
same,POTASSIUM,[1],5.03 MEQ/L
same,SODIUM,[1],142.92 MEQ/L
same,TOTAL BILIRUBIN,[1],0.17 mg/dL
same,TOTAL PROTEIN,[1],5.63 G/DL
same,URIC ACID,[1],0.5 mg/dL
same,ABSOLUTE BASOPHIL,[2],0 CELLS/uL
same,ABSOLUTE EOSINOPHIL,[2],37.5 CELLS/uL
same,ABSOLUTE LYMPHOCYTE,[2],8049.5 CELLS/uL
same,ABSOLUTE MONOCYTE,[2],82.83 CELLS/uL
same,ABSOLUTE SEGMENTED NEUTROPHIL,[2],646.83 CELLS/uL
same,BASOPHIL,[2],0%
same,EOSINOPHIL,[2],0.5%
same,ERYTHROCYTE COUNT,[2],5.36 x10E6/uL
same,HEMATOCRIT,[2],33.9%
same,HEMOGLOBIN,[2],13.02 G/DL
same,LEUKOCYTE COUNT,[2],8.82 x10E3/uL
same,LYMPHOCYTE,[2],90.17%
same,MEAN CORPUSCULAR HEMOGLOBIN,[2],24.32 pg
same,MEAN CORPUSCULAR HEMOGLOBIN CONCENTRATION,[2],38.42 G/DL
same,MONOCYTE,[2],1.17%
same,NEUTROPHIL,[2],8.17%
same,NUCLEATED RED BLOOD CELLS,[2],0.17 /100WBC
same,PLATELET COUNT,[2],1231.5 x10E3/uL
same,ALANINE AMINOTRANSFERASE,[2],62 u/L
same,ALBUMIN,[2],3.97 G/DL
same,ALKALINE PHOSPHATASE,[2],303.67 u/L
same,ASPARTATE AMINOTRANSFERASE,[2],84.5 u/L
same,BLOOD UREA NITROGEN,[2],14.83 mg/dL
same,CARBON DIOXIDE,[2],31.83 mmol/L
same,CHLORIDE,[2],97 MEQ/L
same,CHOLESTEROL,[2],68.83 mg/dL
same,CREATINE PHOSPHOKINASE,[2],411.33 u/L
same,CREATININE,[2],0.16 mg/dL
same,LACTATE DEHYDROGENASE,[2],88.5 u/L
same,LIPASE,[2],9.5 u/L
same,PHOSPHORUS,[2],9.98 mg/dL
same,POTASSIUM,[2],5.72 MEQ/L
same,SODIUM,[2],141.62 MEQ/L
same,TOTAL BILIRUBIN,[2],0.1 mg/dL
same,TOTAL PROTEIN,[2],5.67 G/DL
same,URIC ACID,[2],0.52 mg/dL
same,ABSOLUTE BASOPHIL,[3],0 CELLS/uL
same,ABSOLUTE EOSINOPHIL,[3],0 CELLS/uL
same,ABSOLUTE LYMPHOCYTE,[3],11817.33 CELLS/uL
same,ABSOLUTE MONOCYTE,[3],150.67 CELLS/uL
same,ABSOLUTE SEGMENTED NEUTROPHIL,[3],1032 CELLS/uL
same,BASOPHIL,[3],0%
same,EOSINOPHIL,[3],0%
same,ERYTHROCYTE COUNT,[3],4.98 x10E6/uL
same,HEMATOCRIT,[3],32.63%
same,HEMOGLOBIN,[3],12.83 G/DL
same,LEUKOCYTE COUNT,[3],13 x10E3/uL
same,LYMPHOCYTE,[3],91.33%
same,MEAN CORPUSCULAR HEMOGLOBIN,[3],25.77 pg
same,MEAN CORPUSCULAR HEMOGLOBIN CONCENTRATION,[3],39.37 G/DL
same,MONOCYTE,[3],1%
same,NEUTROPHIL,[3],7.67%
same,NUCLEATED RED BLOOD CELLS,[3],0 /100WBC
same,PLATELET COUNT,[3],1118.67 x10E3/uL
same,ALANINE AMINOTRANSFERASE,[3],64.67 u/L
same,ALBUMIN,[3],4 G/DL
same,ALKALINE PHOSPHATASE,[3],377.67 u/L
same,ASPARTATE AMINOTRANSFERASE,[3],83.67 u/L
same,BLOOD UREA NITROGEN,[3],16.33 mg/dL
same,CARBON DIOXIDE,[3],32.67 mmol/L
same,CHLORIDE,[3],99.33 MEQ/L
same,CHOLESTEROL,[3],66.33 mg/dL
same,CREATINE PHOSPHOKINASE,[3],223.67 u/L
same,CREATININE,[3],0.16 mg/dL
same,LACTATE DEHYDROGENASE,[3],89 u/L
same,LIPASE,[3],9.67 u/L
same,PHOSPHORUS,[3],9.83 mg/dL
same,POTASSIUM,[3],5.42 MEQ/L
same,SODIUM,[3],143.77 MEQ/L
same,TOTAL BILIRUBIN,[3],0.13 mg/dL
same,TOTAL PROTEIN,[3],5.7 G/DL
same,URIC ACID,[3],0.53 mg/dL
